# Data published in US20120129212A1, “METHOD OF MONITORING ERYTHROPOIESIS” (VERTEX PHARMACEUTICALS INCORPORATED, priority 2009, published 2012).
# Test system: erythropoiesis (nascent erythrocytes)
# Assay: Cobalt chloride-induced erythropoiesis in eGFP mice (FACS of erythrocyte eGFP fluorescence)
# Format: in vivo, hemizygous BALB/c mice
# Settings: for effect on erythropoiesis (right-shift of eGFP fluorescence curves): subcutaneous injection, six mice
# Description: Mice were anesthetized with isofluorane and a minute incision was made into the lateral tail vein. Approximately 1 μl of tail vein blood was diluted into 0.5 ml of sterile saline containing 3 mM EDTA and stored at 4° C. Fluorescence activated cell sorting (FACS) was performed within 6 hours of blood collection on a FACSAria (BD Biosciences, San Jose, Calif.) flow cytometer. A 488 nm laser was used to excite the eGFP and a 530/30 nm band-pass filter and a 502 nm long-pass filter were used to monitor emissions. Forward and side scatter were used to gate for single erythrocytes, with approximately one hundred thousand events measured per blood sample. Median Fluorescence Intensity (MFI) for each erythrocyte population was analyzed using FlowJo 7.2.5 software (Tree Star, Inc. Ashland, Oreg.).
# Tail vein blood (1 μl) was collected daily from one-year old hemizygous BALB/c mice starting on the day before cobalt chloride treatment (Day −1) and continuing through three days after treatment (Day 3) as described in Example 1, On Day 0, six one-year old BALB/c (hemizygous) mice were subcutaneously injected with 0.1 mL saline containing 4 μmols of cobalt chloride. FACS was performed immediately following the blood draw, and data were analyzed with FlowJo software as described in Example 1.
compound,measurement,setting,value
[Cl][Co][Cl] [cobalt chloride],increase in the number of nascent erythrocytes,"4 μmols cobalt chloride s.c. on Day 0, Day 2 vs Day −1, statistically significant",10 fold
same,effect on erythropoiesis (right-shift of eGFP fluorescence curves),,stimulates erythropoiesis in vivo
same,effect on erythropoiesis (right-shift of eGFP fluorescence curves),listed as Cobalt chloride,stimulated erythropoiesis in each of the six mice tested
